# Source: the METLIN SMRT retention time set (Domingo-Almenara et al. 2019)
# Experiment: gradient 5% acetonitrile 3 min, to 50% in 2 min, to 85% in 15 min, held 3 min, 100 µL/min
# Conditions: column: Zorbax Extend-C18 2.1 x 50 mm; eluents: water / acetonitrile, 0.1% formic acid
# How it was run: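 Values are retention times taken from adduct peaks that software picked and an analyst inspected. The pure standards were run as mixtures of ~100 molecules on HPLC linked to a quadrupole time-of-flight mass spectrometer, in positive and negative ionization mode. A Zorbax Extend-C18 column (2.1 × 50 mm, 1.8 μm) was used at 100 μL/min with water and acetonitrile, each including 0.1% formic acid.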
row,Compound,RP-LC retention time
1,O=C(Nc1ccc(-c2ccno2)cc1)C1CCN(C(=O)C2Sc3ccccc3NC2=O)CC1 (configuration not stated),766 s
2,COc1ccc(NS(=O)(=O)c2sc3ccc(Cl)cc3c2C)cc1N1CCNCC1,781 s
3,Cc1nn(-c2ccccc2)c(C)c1S(=O)(=O)N1CCC(C(=O)Nc2ccc(F)c(Cl)c2)CC1,1050 s
4,CN(C(=O)CN1C(=O)C(O)(c2cccc(F)c2)c2ccccc21)c1ccccc1 (configuration not stated),856 s
5,COc1cc(OC)cc(-c2nc(-c3cn(Cc4ccccc4)nn3)no2)c1,1000 s
6,CN1c2cc(C(=O)NCc3ccccc3Br)ccc2C(=O)N2CCCCC21 (configuration not stated),860 s
7,COc1cccc(CNC(=O)C2(C)CCCN(C(=O)Nc3ccccc3Cl)C2)c1 (configuration not stated),919 s
8,O=C(NCc1ccc2c(c1)OCO2)C(=O)NCC1CCCO1 (configuration not stated),639 s
9,CC1CCN(C(=O)C2=CN(c3cc(F)cc(F)c3)c3ccccc3S2(=O)=O)CC1,945 s
10,CCOc1ccc2nc(C(=O)NCCN3CCc4ccccc4C3)cn2n1,577 s
11,COCCNc1c(-c2ccc(F)cc2)nc2sc(C(=O)NCc3ccccn3)c(C)n12,661 s
12,COc1ccc(-n2nnc(-c3nc(-c4ccccc4OC)cs3)c2N)cc1,1090 s
13,CCC(=O)Nc1ccc(CCc2nc3ccc(C(=O)NCCC(C)C)cc3[nH]2)cc1,645 s
14,Cc1cc(C)cc(N2C=NS(=O)(=O)c3cccnc32)c1,837 s
15,CCS(=O)(=O)N1CC(=O)N(c2ccc(F)cc2)C(C)(C(=O)NCc2ccc(F)cc2)C1 (configuration not stated),743 s
16,COc1cc(OC)c(NC(=O)CCSc2nc3c(=O)n(C)c(=O)n(C)c3n2C)cc1Cl,735 s
17,CS(=O)(=O)N1CCC(OC2CCN(C(=O)Nc3ccccc3F)CC2)CC1,703 s
18,CCOc1ccc(-c2csc3c(=O)n(Cc4ccc(N5CCCC5=O)cc4)cnc23)cc1OCC,929 s
19,CCOC(=O)C1=C(N)Oc2cc(C)n(CCN(C)C)c(=O)c2C1c1ccccc1F (configuration not stated),648 s
20,CCN1C(=O)c2cc(S(=O)(=O)Nc3cc(F)ccc3C)ccc2Oc2cccnc21,1030 s
21,CCOc1ccccc1CNC(=O)Cn1c(CC)nc2onc(C)c2c1=O,865 s
22,CN(C)S(=O)(=O)Nc1cccc(Br)c1,898 s

row,Compound,RP-LC retention time
1,CCCCc1ccc(NC(=O)CSc2cc(N3CCN(c4ccc(OC)cc4)CC3)ncn2)cc1,1310 s
2,Cc1ccc(NC(=O)N2CCCC2c2nncn2C2CCCC2)cc1F (configuration not stated),728 s
3,CCCN(CCC)C(=O)C1COC2(CCN(C(=O)c3ccco3)CC2)N1C(=O)c1ccccc1 (configuration not stated),778 s
4,O=C(COc1ccccc1F)Nc1ccc2c(c1)CN(C(=O)c1ccco1)CC2,770 s
5,COc1cccc(NS(=O)(=O)c2cc(-c3[nH]ncc3C(=O)N3CCCCC3)oc2C)c1,721 s
6,Cc1ccnc(NC(=O)NCCCSc2nnc(-c3ccccc3)o2)n1,727 s
7,Cc1ccc(NC(=O)NCC(c2cccnc2)c2cn(C)c3ccccc23)c(Cl)c1 (configuration not stated),768 s
8,CC(C)c1cc(C(=O)Nc2ccc(F)cc2F)nc2ccnn12,1160 s
9,Cc1cc2c(cc1S(=O)(=O)N1CCCC1C(=O)Nc1ccc(C(F)(F)F)cc1)OCC(=O)N2 (configuration not stated),873 s
10,CCCNC(=O)N1CCCC1c1nc(-c2cccc(C(F)(F)F)c2)no1 (configuration not stated),963 s
11,Cc1cc2nc(NC3=NCN(CCO)CN3)nc(C)c2cc1C,597 s
12,CC(C)Oc1ccc(-c2noc(CCn3nc(-c4ccc5c(c4)OCO5)ccc3=O)n2)cc1,1020 s
13,CCOc1ccc(C(=O)N2CCC3(CC2)NC(=O)c2cc(C)ccc2N3CC)cc1,878 s
14,Cc1ccc(-n2nc(C)c(S(=O)(=O)N3CCC(C(=O)NCC4CCCO4)CC3)c2C)cc1 (configuration not stated),807 s
15,CNC(=O)C1CCCN(c2nc3ncn(CC(=O)NCc4cccc(OC)c4)c(=O)c3s2)C1 (configuration not stated),621 s
16,COc1cc(OC)c(NC(=O)NCC(c2cccnc2)c2c[nH]c3ccccc23)cc1Cl (configuration not stated),706 s
17,Cn1cc(S(=O)(=O)N2CCC(C(=O)N3CCCC3)CC2)cc1C(=O)N1CCCCC1,681 s
18,COc1ccc(-c2cn3c(CC(=O)N4CCN(Cc5ccccc5)CC4)csc3n2)cc1OC,596 s
19,COc1ccc(-c2c(C)noc2NC(C)=O)cc1S(=O)(=O)NCc1ccc(C)cc1,784 s
20,COc1ccc2oc(-c3csc(NC(=O)c4ccc([N+](=O)[O-])s4)n3)cc2c1,1110 s
21,COc1cc(OC)cc(-c2nc(C3CC(=O)N(c4ccc(OC)c(OC)c4)C3)no2)c1 (configuration not stated),877 s
22,Cc1ccc2[nH]c(=O)c(CCC(=O)NCc3ccncc3)cc2c1,586 s

row,Compound,RP-LC retention time
1,CCOC(=O)C1=C(C)NC2=C(C(=O)C(C(=O)OC)C(C)C2)C1c1ccccc1Cl (configuration not stated),965 s
2,COc1ccccc1CNC1CCN(c2ccc(C(=O)NC3CC3)cn2)C1 (configuration not stated),552 s
3,Brc1ccc(-c2nc(-c3ccn4cnnc4c3)no2)cc1,929 s
4,COc1ccc(CCNC(=O)CN2C(=O)NC(c3ccc(Cl)cc3)C3=C2COC3=O)cc1OC (configuration not stated),750 s
5,O=C(NCc1cccnc1)C1CC(=O)N(c2ccc3c(c2)CCN3C(=O)C2CCC2)C1 (configuration not stated),598 s
6,COc1ccc(-c2cc(C(=O)N(C)C)c(C)n2C)cc1,808 s
7,COc1ccc(N2C=C(C(=O)N3CCOCC3)S(=O)(=O)c3ccc(F)cc32)cc1OC,729 s
8,Cc1nc(-c2cnccn2)n(CC(=O)Nc2ccc(F)c(Cl)c2)c(=O)c1C,789 s
9,O=S(=O)(c1ccc2c(c1)OCCO2)N1CCC[C@H]1c1nc(-c2ccc(F)cc2)n[nH]1,799 s
10,CCN(Cc1ccccc1)C(=O)Cn1nc(C)c2sc(-c3ccccc3)nc2c1=O,1000 s
11,COc1cccc(NC(=O)N2CCN(c3cc(C)nc(N4CCOCC4)n3)CC2)c1,628 s
12,C[C@H](NC(=O)C1CCN(S(=O)(=O)c2ccccc2)CC1)C(=O)O,643 s
13,CCCCNC(=O)C1CCN(C(=O)Nc2ccc(NC(=O)NC3CCCC3)cc2)CC1,684 s
14,Cc1ccc(CN2CCN(CC(=O)N3CCN(c4cccc(Cl)c4)CC3)C(=O)C2=O)cc1,866 s
15,Cn1nc(N2CCCC(NS(=O)(=O)c3cccc(Cl)c3)C2)ccc1=O (configuration not stated),775 s
16,O=C(Cc1c(F)cccc1Cl)Nc1nc2c(s1)CN(S(=O)(=O)c1ccccc1)CC2,950 s
17,CCCNc1cc(N2CCC(CCC(=O)NCc3ccccc3C)CC2)ncn1,702 s
18,Clc1ccc(-c2ccc(CNCc3ccncc3)o2)c(Cl)c1,742 s
19,COC(=O)C1=CN(c2cc(OC)cc(OC)c2)c2cc(F)ccc2S1(=O)=O,904 s
20,O=C(Nc1ccc(F)cc1)C1CCN(c2cc(N3CCCCC3)ncn2)CC1,696 s
21,O=C(CCc1c(-c2ccccc2)nc2ccccn12)NC1CCCCCC1,666 s
22,CCN1CCCC1CNC(=O)C1c2ccccc2C(=O)N(CCOC)C1c1ccc(F)cc1 (configuration not stated),640 s

row,Compound,RP-LC retention time
1,COc1cc(CN2CCC3(CCC(CN4CCOCC4)O3)CC2)ccc1OCC(C)C (configuration not stated),598 s
2,CC(C)(Oc1ccc(Cl)cc1)C(=O)NCC1CCN(C(=O)Nc2ccc(F)cc2)CC1,874 s
3,CC1CCN(C(=O)c2cc3c(s2)CCC(C(=O)NCc2cccnc2)C3)CC1 (configuration not stated),639 s
4,CCN1CCCC(Cn2cc(COc3ccc4c(c3)CCC4)nn2)C1 (configuration not stated),679 s
5,CCOc1ccc(NC(=O)c2oc3cc(C)ccc3c2C)c2cccnc12,753 s
6,Cc1cc2[nH]c(C(=O)Nc3cccc(Cl)c3F)c(CN3CCOCC3)c2s1,768 s
7,CC(=O)Nc1ccc(-c2noc(C3CCN(C(=O)Cc4c[nH]c5ccccc45)CC3)n2)cc1,761 s
8,Cc1ccc2c(Nc3cccc(C(C)C)c3)c(C(=O)N3CCCC(C)C3)cnc2n1 (configuration not stated),722 s
9,Cc1nc(-c2ccc(-c3noc(CNC(=O)c4ccco4)n3)cc2)cs1,837 s
10,CCOC(=O)CNc1ncnc2nc[nH]c12,513 s
11,O=C(Cn1c(=O)cc(-c2nc(C3CC3)no2)c2ccccc21)NCc1cccc(Cl)c1,979 s
12,O=NN(CCCl)C(=O)NCc1ccc[n+]([O-])c1,587 s
13,Cc1cc2c(c(=O)n(-c3ccc(F)cc3)c(=O)n2CC(=O)N2CCCc3ccccc32)n1C,893 s
14,CCN(CC)CCNc1ccc2nc(C)n3c4ccc(OC)cc4c(=O)c1c23,610 s
15,CCn1cc(CCNC(=O)c2cccnc2SC)c2cccnc21,647 s
16,CCCC(=O)NCc1nc(-c2ccccc2Cl)no1,755 s
17,O=C(c1ccc(F)cc1)N1CCCC1c1nc(-c2cccc(C(F)(F)F)c2)no1 (configuration not stated),1090 s
18,Cc1cc(C)c2c(N3CCCCC3)nc(C(=O)NCCN3CCOCC3)nc2n1,550 s
19,O=C(Cc1cccs1)N1CCN(S(=O)(=O)c2cc(-c3noc(C4CCC4)n3)cs2)CC1,1010 s
20,Cc1ccc(CNC(=O)C2CCCN(c3nnc4ccccn34)C2)o1 (configuration not stated),649 s
21,O=C(Cc1csc2nc(-c3ccccc3)cn12)N1CCN(c2cccc(Cl)c2)CC1,949 s
